Test results from PubChem BioAssay AID2060325 (Molecular Pharmacology Branch, DTP, NCI, 2025).

System: SK-OV-3 multi-cell spheroids, viability
Experiment: Anticancer human tumor SK-OV-3 cell line growth inhibition [IpAb];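 on viability, T/C: viability read after seven days of drug exposure; percent of DMSO vehicle control luminescence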
Conditions: for IC50: curve of first compound; for viability, T/C: stronger effect = lower value
Procedure, shortened: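 Multi-cell spheroids of 60% tumour cells, 25% HUVEC and 15% MSC in ultra-low-attachment U-bottom wells, treated with agents combined with ipatasertib or abemaciclib. Half-log ranges top out near clinical Cmax, or 10 microM when Cmax is unknown.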

[1] = second compound 0.01 µM, first compound 0.0316 µM
[2] = second compound 0.01 µM, first compound 0.1 µM
[3] = second compound 0.01 µM, first compound 0.316 µM
[4] = second compound 0.01 µM, first compound 1 µM
[5] = second compound 0.01 µM, first compound 3.16 µM
[6] = second compound 0.01 µM, first compound 10 µM
[7] = second compound 0.0316 µM, first compound 0.0316 µM
[8] = second compound 0.0316 µM, first compound 0.1 µM
[9] = second compound 0.0316 µM, first compound 0.316 µM
[10] = second compound 0.0316 µM, first compound 1 µM
[11] = second compound 0.0316 µM, first compound 3.16 µM
[12] = second compound 0.0316 µM, first compound 10 µM
[13] = second compound 0.1 µM, first compound 0.0316 µM
[14] = second compound 0.1 µM, first compound 0.1 µM
[15] = second compound 0.1 µM, first compound 0.316 µM
[16] = second compound 0.1 µM, first compound 1 µM
[17] = second compound 0.1 µM, first compound 3.16 µM
[18] = second compound 0.1 µM, first compound 10 µM
[19] = second compound 0.316 µM, first compound 0.0316 µM
[20] = second compound 0.316 µM, first compound 0.1 µM
[21] = second compound 0.316 µM, first compound 0.316 µM
[22] = second compound 0.316 µM, first compound 1 µM
[23] = second compound 0.316 µM, first compound 3.16 µM
[24] = second compound 0.316 µM, first compound 10 µM
[25] = second compound 1 µM, first compound 0.0316 µM
[26] = second compound 1 µM, first compound 0.1 µM
[27] = second compound 1 µM, first compound 0.316 µM
[28] = second compound 1 µM, first compound 1 µM
[29] = second compound 1 µM, first compound 3.16 µM
[30] = second compound 1 µM, first compound 10 µM

Structure (SMILES)	IC50 (second compound 0.01 µM) [nM]	IC50 (second compound 0.0316 µM) [nM]	IC50 (second compound 0.1 µM) [nM]	IC50 (second compound 0.316 µM) [nM]	IC50 (second compound 1 µM) [nM]	viability, T/C [1] [%]	viability, T/C [2] [%]	viability, T/C [3] [%]	viability, T/C [4] [%]	viability, T/C [7] [%]	viability, T/C [8] [%]	viability, T/C [9] [%]	viability, T/C [10] [%]	viability, T/C [13] [%]	viability, T/C [14] [%]	viability, T/C [15] [%]	viability, T/C [16] [%]	viability, T/C [19] [%]	viability, T/C [20] [%]	viability, T/C [21] [%]	also measured
CC1(C)CCC(CN2CCN(c3ccc(C(=O)NS(=O)(=O)c4ccc(NCC5CCOCC5)c([N+](=O)[O-])c4)c(Oc4cnc5[nH]ccc5c4)c3)CC2)=C(c2ccc(Cl)cc2)C1 + CCN1CCN(Cc2ccc(Nc3ncc(F)c(-c4cc(F)c5nc(C)n(C(C)C)c5c4)n3)nc2)CC1	2540	2450	722	316	< 31.6	92.7	96.9	90	71.8	78.7	74.3	79.6	68.5	60.7	59.2	55.2	48	55.8	53.5	52.7	viability, T/C [5]: 45.3%; viability, T/C [6]: 18.2%; viability, T/C [11]: 44.7%; viability, T/C [12]: 17.9%; viability, T/C [17]: 34.4%; viability, T/C [18]: 14.3%; viability, T/C [22]: 39.9%; viability, T/C [23]: 31.5%; viability, T/C [24]: 10.4%; viability, T/C [25]: 44.5%; viability, T/C [26]: 47.3%; viability, T/C [27]: 42.3%; viability, T/C [28]: 38.3%; viability, T/C [29]: 31.9%; viability, T/C [30]: 12.9%
CCCS(=O)(=O)Nc1ccc(F)c(C(=O)c2c[nH]c3ncc(-c4ccc(Cl)cc4)cc23)c1F + CCN1CCN(Cc2ccc(Nc3ncc(F)c(-c4cc(F)c5nc(C)n(C(C)C)c5c4)n3)nc2)CC1	9390	5140	1240	822	< 31.6	95.1	93.5	89.1	85.5	70.1	69.7	70.3	68.1	55.3	59.5	57.4	51.7	53.2	55.7	52.9	viability, T/C [5]: 80.3%; viability, T/C [6]: 48%; viability, T/C [11]: 65.3%; viability, T/C [12]: 29.3%; viability, T/C [17]: 39.6%; viability, T/C [18]: 20.1%; viability, T/C [22]: 46.5%; viability, T/C [23]: 44.1%; viability, T/C [24]: 25.4%; viability, T/C [25]: 41.2%; viability, T/C [26]: 44.4%; viability, T/C [27]: 48.1%; viability, T/C [28]: 38.6%; viability, T/C [29]: 36.8%; viability, T/C [30]: 24.2%
COc1c(OCCCN2CCOCC2)ccc2c3n(c(=NC(=O)c4cnc(N)nc4)nc12)CCN3 + CCN1CCN(Cc2ccc(Nc3ncc(F)c(-c4cc(F)c5nc(C)n(C(C)C)c5c4)n3)nc2)CC1	6.39	4.18	< 3.16	< 3.16	< 3.16	12.6	7.16	5.33	3.04	9.9	6.3	5	2.92	10.4	5.9	5.13	2.59	9.73	6.47	5.55	viability, T/C (second compound 0.01 µM, first compound 0.00316 µM): 68%; viability, T/C (second compound 0.01 µM, first compound 0.01 µM): 38.6%; viability, T/C (second compound 0.0316 µM, first compound 0.00316 µM): 56.2%; viability, T/C (second compound 0.0316 µM, first compound 0.01 µM): 30.5%; viability, T/C (second compound 0.1 µM, first compound 0.00316 µM): 43%; viability, T/C (second compound 0.1 µM, first compound 0.01 µM): 23.7%; viability, T/C (second compound 0.316 µM, first compound 0.00316 µM): 42.1%; viability, T/C (second compound 0.316 µM, first compound 0.01 µM): 22.4%; viability, T/C [22]: 3.33%; viability, T/C (second compound 1 µM, first compound 0.00316 µM): 40.2%; viability, T/C (second compound 1 µM, first compound 0.01 µM): 23.2%; viability, T/C [25]: 10.2%; viability, T/C [26]: 6.83%; viability, T/C [27]: 5.51%; viability, T/C [28]: 4.14%
Cc1nc(NC(=O)N2CCCC2C(N)=O)sc1-c1ccnc(C(C)(C)C(F)(F)F)c1 (stereo not given) + CCN1CCN(Cc2ccc(Nc3ncc(F)c(-c4cc(F)c5nc(C)n(C(C)C)c5c4)n3)nc2)CC1	239	111	33.4	< 31.6	< 31.6	82.9	70	43.1	20.7	66.5	52.3	31.7	17.5	50.1	40.5	23.9	15.6	43.2	37.1	28.4	viability, T/C [5]: 9.47%; viability, T/C [6]: 5.17%; viability, T/C [11]: 8.57%; viability, T/C [12]: 4.47%; viability, T/C [17]: 9.26%; viability, T/C [18]: 4.48%; viability, T/C [22]: 15.7%; viability, T/C [23]: 7.93%; viability, T/C [24]: 5.24%; viability, T/C [25]: 39.5%; viability, T/C [26]: 34.7%; viability, T/C [27]: 23.9%; viability, T/C [28]: 15.9%; viability, T/C [29]: 9.43%; viability, T/C [30]: 4.78%
